Columns and labels:
M1 receptor = molecular target: T1, M1 receptor (Rattus norvegicus, UniProt P08482); assay: Receptor binding activity, inhibition of [3H]pyrenzepine binding to M1; settings: 1 nM [3H]pyrenzepine, rat's brain except cerebellum; for inhibition at 10 µM: 10 μM test compound
T1 construct: rat's brain except for cerebellum was homogenized; from tissue; host or cells: rat brain except cerebellum, homogenate
T1 sequence (P08482 1-460): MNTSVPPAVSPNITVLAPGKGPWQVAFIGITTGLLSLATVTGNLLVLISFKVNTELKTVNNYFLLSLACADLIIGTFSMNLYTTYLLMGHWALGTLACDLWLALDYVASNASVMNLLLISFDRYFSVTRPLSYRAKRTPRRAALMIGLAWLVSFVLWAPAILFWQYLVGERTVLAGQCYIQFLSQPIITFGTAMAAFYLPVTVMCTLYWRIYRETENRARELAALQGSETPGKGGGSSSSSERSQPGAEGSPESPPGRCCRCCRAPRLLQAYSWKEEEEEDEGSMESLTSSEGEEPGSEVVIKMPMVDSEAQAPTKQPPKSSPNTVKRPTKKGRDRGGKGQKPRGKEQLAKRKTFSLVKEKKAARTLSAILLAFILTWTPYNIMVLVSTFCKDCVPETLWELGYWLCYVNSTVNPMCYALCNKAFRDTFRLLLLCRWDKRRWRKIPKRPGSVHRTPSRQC
Description: The binding ability of the test compounds to M1 was determined according to a modification of the method of Watson et al. (Life Sci., 32, 3001 (1983)). […] The mixture was incubated for 1 hour. The inhibition rate (%) of the binding with [3H]pyrenzepine was evaluated. The higher inhibition means the higher affinity of the test compound for M1 receptor.

[1] = system: experimental amnesia in mice induced by cycloheximide; assay: Anti-amnesic effect: passive avoidance task (step-through), cycloheximide-induced amnesia; type: in vivo, ddY male mice; settings: for Step-through latency: mean of group
Description: (§1) As experimental animals, Wistar male rats and ddY male mice were used for the tests after they were housed for a week under every 12 hours' dark-light cycle at room temperature of 24° to 26° C.
The effect on experimental amnesia in mice induced by cycloheximide was evaluated.
The experiment was carried out using an experimental apparatus of passive avoidance task for mice (made by Ohara-ika-sangyo K. K.) comprising a box divided into the two compartments of dark and light. That is, the dark compartment [a box having a reverse trapezoid cross section (height: 8 cm, base line: 5 cm, oblique line: 9.5 cm) and having the length of 14 cm] was shield from a light with a black plastic case and was floored with stainless grids for giving an electrical shock so that an electricity might be turned on a determined time after interception of a photobeam placed in the dark compartment. The light compartment made of transparent plastic (a box of the same shape as that of the dark compartment having the length of 16 cm, lightened from a location spaced 25 cm above by a 60 W electric lamp) was provided adjacent to the dark compartment. Between the two compartments, there was provided a circular entrance having the diameter of 3 cm with a guillotine door which could be opened and closed. By using the above-mentioned dark-light box, the experiment was carried out according to the following procedure.
A mouse (5 week-old) previously conditioned in the dark-light box was put in the light compartment and the guillotine door was opened. Three seconds after the mouse moved into the dark compartment and interrupted the photobeam, 0.3 mA electrical shock was given to limbs for 3 seconds from the floor grid (aquisition trial). Just after the mouse rushed into the light compartment, the door was shut and the […] in the light compartment was picked out to return to his home cage. After 24 hours, the mouse was placed again in the light compartment and the period from the opening of the guillotine door to the time the mouse completely entered the dark compartment was recorded maximally 300 seconds as a step-through latency (retention trial).
The amnesia was induced by subcutaneous injection of cycloheximide (120 mg/kg) dissolved in saline 10 minutes before the aquisition trial. As a control, the same amount of saline alone was administered. […]
A ratio of number of mice showing the step-through latency of more than 100 seconds in the group was defined as a ratio of memory for convenience's sake.
The step-through latency in Table 2 was the mean value for each treated group.

[2] = Acute toxicity test, oral; type: in vivo, ddY male mice; settings: mouse, in vivo, ddY mice, 2 weeks observation
Description: (§2) With respect to the compounds 1 to 86 shown in Table 1 as test compounds, the acute toxicity was examined using ddY mice according to the following method.
(§3) In each group, six male ddY mice weighing 27 to 30 g were employed. The compounds 1 to 86 suspended in an aqueous solution of 0.5% sodium carboxymethylcellulose were administered orally in a volume of 0.1 ml/10 g body weight. […] The LD50 (mg/kg) values were estimated from the ratio of the number of dead mice to the number of mice used.

[3] = system: forced swimming test with rats (duration of immobility); assay: Antidepressant activity: forced swimming test using rats; type: in vivo, Wistar male rats; settings: for Suppression of duration of immobility: vs saline
Description: as §1
That is, a rat (5 week-old) was placed into a glass cylinder having the inside diameter of 18 cm and the height of 40 cm which contained water (water temperature: 25° C.) up to its height of 15 cm. After 15 minutes, the rat was picked up followed by drying and then returned to his home cage. After 24 hours, the rat was again placed into the water in the same cylinder. The duration of immobility (the time rat kept motionless) was accumulatively measured with a stopwatch for five minutes (a five minutes' test). Each test compound was suspended in saline. The administration was carried out three times, at 24, 5 and 1 hour before the five minutes' test in case of an intraperitoneal administration or with only a single administration at 1 hour before the five minutes' test in case of an oral administration to examine the antidepressant effect.
The duration of immobility in Table 4 is the mean value for […] in each group. Suppression is expressed as a ratio in percentage of a reduction of the duration of immobility in the group administered with the test compound to that in the control group administered with saline alone.

ddY mice = assay: Acute toxicity test, oral; type: in vivo, ddY male mice; settings: dose of 200 mg/kg, 2 weeks
Description: as §2, §3

[4] = Mus musculus, 3 mg/kg oral, mice with latency > 100 seconds, read-out: Ratio of memory
[5] = Mus musculus, 1 mg/kg oral, mice with latency > 100 seconds, read-out: Ratio of memory
[6] = p.o., 30 mg/kg, 1 hour before test

Row | Structure (SMILES) | inhibition at 10 µM (M1 receptor) [%] | Step-through latency ([1]; 3 mg/kg oral) [s] | responders at 3 mg/kg [1, 4] [%] | LD50 at 336 h [2] [mg/kg] | Step-through latency ([1]; 1 mg/kg oral) [s] | responders at 1 mg/kg [1, 5] [%] | further results
1 | O=C1NC(N2CCCC2)CC1=Cc1cccc(Oc2ccccc2)c1 (stereo not drawn) [Compound 59] | 56 | 157 | 50 | ≥ 500 | – | – | –
2 | CCN1CCC(=Cc2cccc(Oc3ccccc3)c2)C1 [Compound 67] | – | – | – | – | 100 | 50 | Inhibition of the binding with [3H]pyrenzepine (M1) (M1 receptor; 1 μM test compound): 78%
3 | O=C1NCCC1=Cc1cccc(Oc2ccccc2)c1 [Compound 1] | – | 198 | 72 | ≥ 500 | – | – | Duration of immobility ([3]; i.p., 1 mg/kg/time, 24, 5 and 1 hour before test): 164 s; Suppression of duration of immobility ([3]; i.p., 1 mg/kg/time): 20%; Duration of immobility ([3]; i.p., 3 mg/kg/time, 24, 5 and 1 hour before test): 101 s; Suppression of duration of immobility ([3]; i.p., 3 mg/kg/time): 50%; Duration of immobility ([3]; i.p., 10 mg/kg/time, 24, 5 and 1 hour before test): 71 s; Suppression of duration of immobility ([3]; i.p., 10 mg/kg/time): 65%; Duration of immobility ([3]; i.p., 30 mg/kg/time, 24, 5 and 1 hour before test): 54 s; Suppression of duration of immobility ([3]; i.p., 30 mg/kg/time): 74%; Duration of immobility ([3]; p.o., 0.3 mg/kg, 1 hour before test): 190 s; Suppression of duration of immobility ([3]; p.o., 0.3 mg/kg): 7%; Duration of immobility ([3]; p.o., 1 mg/kg, 1 hour before test): 165 s; Suppression of duration of immobility ([3]; p.o., 1 mg/kg): 20%; Duration of immobility ([3]; p.o., 3 mg/kg, 1 hour before test): 137 s; Suppression of duration of immobility ([3]; p.o., 3 mg/kg): 33%; Duration of immobility ([3]; p.o., 10 mg/kg, 1 hour before test): 76 s; Suppression of duration of immobility ([3]; p.o., 10 mg/kg): 63%; Duration of immobility [3, 6]: 34 s; Suppression of duration of immobility ([3]; p.o., 30 mg/kg): 83%
4 | NC(=O)CN1CCC(=Cc2cccc(Oc3ccccc3)c2)C1=O [Compound 32] | 91 | – | – | ≥ 500 | 94 | 50 | –
5 | O=C1C(=Cc2cccc(Oc3ccccc3)c2)CCN1CCF [Compound 26] | 87 | – | – | ≥ 500 | 196 | 75 | –
6 | CON1CCC(=Cc2cccc(Oc3ccccc3)c2)C1=O [Compound 22] | 63 | 100 | 50 | ≥ 500 | – | – | –
7 | C=CCN1CCC(=Cc2cccc(Oc3ccccc3)c2)C1=O [Compound 20] | 88 | – | – | ≥ 500 | – | – | –
8 | CC(C)N1CCC(=Cc2cccc(Oc3ccccc3)c2)C1=O [Compound 16] | 75 | 176 | 75 | ≥ 500 | – | – | –
9 | C(=C1CCNC1)c1cccc(Oc2ccccc2)c1 [Compound 64] | 90 | 150 | 63 | – | – | – | Duration of immobility [3, 6]: 40 s; Suppression of duration of immobility ([3]; p.o., 30 mg/kg): 82%
10 | CCN1CC(=Cc2cccc(Oc3ccccc3)c2)CC1C (stereo not drawn) [Compound 75] | – | – | – | ≥ 500 | 160 | 50 | inhibition at 1 µM (M1 receptor; 1 μM test compound): 65%
11 | CCCN1CCC(=Cc2cccc(Oc3ccccc3)c2)C1=O [Compound 11] | 58 | 182 | 63 | ≥ 500 | – | – | –
12 | CCN1CCC(=Cc2cccc(Oc3ccccc3)c2)C1=O [Compound 10] | 90 | 127 | 80 | ≥ 500 | – | – | –
13 | CN1CCC(=Cc2cccc(Oc3ccccc3)c2)C1 [Compound 65] | 52 | – | – | ≥ 500 | 117 | 50 | –
14 | CC(C)N1CCC(=Cc2cccc(Oc3ccccc3)c2)C1 [Compound 84] | – | – | – | ≥ 500 | 176 | 75 | inhibition at 1 µM (M1 receptor; 1 μM test compound): 75%
15 | CCN1CCC(=Cc2cccc(Oc3ccccc3)c2)C1 [Compound 66] | – | – | – | ≥ 500 | – | – | inhibition at 1 µM (M1 receptor; 1 μM test compound): 82%; Step-through latency ([1]; 0.3 mg/kg oral): 221 s; responders at 0.3 mg/kg ([1]; Mus musculus, 0.3 mg/kg oral, mice with latency > 100 seconds, read-out: Ratio of memory): 75%
16 | C(=C1CCNC1)c1cccc(Oc2ccccc2)c1 [Compound 63] | – | – | – | ≥ 200 | – | – | Dead mice (ddY mice): no dead mice
17 | CCN1CC(=Cc2cccc(Oc3ccccc3)c2)C(C)C1 (stereo not drawn) [Compound 76] | – | – | – | ≥ 500 | 109 | 50 | inhibition at 1 µM (M1 receptor; 1 μM test compound): 80%
